PMC4077706, “Lifting the Mask: Identification of New Small Molecule Inhibitors of Uropathogenic Escherichia coli Group 2 Capsule Biogenesis” (PLoS ONE, 2014)

Key:
[1] = system: K1 capsule biogenesis in E. coli UTI89; assay type: cell-based, Escherichia coli; conditions: average of at least 3 replicates ± SEM, read-out: IC50 K1 phage
Method: The primary assay consisted of detection of the presence and absence of the K1 capsule on the E. coli urinary tract isolate UTI89 under growth conditions with compounds from a large chemical library. The assay was conducted as previously described with the following modifications. The primary assay was conducted in 1,536-well plate format. UTI89 ΔkpsM, an isogenic K1 capsule export mutant, was included as an unencapsulated control. Tetracycline, 50 µM, was used as a negative growth control. A 1∶75 dilution of overnight cultures were made in LB broth containing 0.5% DMSO, and 3 µL of this culture was added to each plate well, and plates were incubated, inverted, at 37°C for 2 hr. […]. The plates were centrifuged briefly, and then were incubated, inverted, at 37°C for an additional 2 hr. […] Resorufin fluorescence was measured using excitation of 560 nm and emission of 590 nm, as per the manufacturer's recommendations.
Concentration-response testing (concentration range = 0.58–300 µM) was used to confirm and characterize the primary screen hits, which was necessary to determine the number of compounds advanced to secondary screens. […] The strain UTI89 ΔkpsM, a K1 capsule export mutant, was evaluated with the wild-type strain as a phage-insensitive control (mimicking 100% capsule inhibition).

Adrenergic α2A = molecular target: T1, Adrenergic α2A (Homo sapiens, UniProt P08913); experiment: Radioligand binding 203620; conditions: 10 µM
T1 construct: host or cells: insect Sf9 cells
T1 sequence (P08913 whole entry): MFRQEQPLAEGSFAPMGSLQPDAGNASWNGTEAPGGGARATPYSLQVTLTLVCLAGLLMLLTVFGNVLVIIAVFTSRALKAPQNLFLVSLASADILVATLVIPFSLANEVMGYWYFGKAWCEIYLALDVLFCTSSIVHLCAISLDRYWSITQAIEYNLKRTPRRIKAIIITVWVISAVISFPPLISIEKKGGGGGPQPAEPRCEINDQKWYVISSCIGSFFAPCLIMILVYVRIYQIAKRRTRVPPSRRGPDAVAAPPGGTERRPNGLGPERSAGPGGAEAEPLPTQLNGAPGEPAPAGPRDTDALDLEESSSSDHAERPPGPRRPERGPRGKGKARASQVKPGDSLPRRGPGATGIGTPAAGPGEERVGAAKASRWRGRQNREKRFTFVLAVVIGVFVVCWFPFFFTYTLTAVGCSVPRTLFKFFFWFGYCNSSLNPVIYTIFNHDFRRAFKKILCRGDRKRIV
Method: Vehicle: 1% DMSO Non-Specific Ligand: 10.0 µM Phentolamine
Incubation Buffer: 50 mM Tris-HCl, pH 7.4, 0. 5 mM Quantitation Method: Radioligand Binding
Bmax: 0.18 pmole/mg Protein *
Incubation Time/Temp: 60 minutes @ 25°C Specific Binding: 80% *
Bmax: 0.17 pmole/mg Protein *
Source: Human recombinant insect Sf9 cells Ligand: 1.0 nM [3H]
Vehicle: 1% DMSO Non-Specific Ligand: 10.0 µM WB-4101
Incubation Time/Temp: 60 minutes @ 25°C Specific Binding: 95% *
Incubation Buffer: 50 mM Tris-HCl, pH 7.4, 12.5 mM Quantitation Method: Radioligand Binding
Bmax: 4.60 pmole/mg Protein *
Source: Human recombinant CHO-K1 cells Ligand: 0.030 nM [125I] Cyanopindolol
Incubation Time/Temp: 2 hours @ 25°C Specific Binding: 95% *
Incubation Buffer: 50 mM Tris-HCl, pH 7.4, 1.4 mM Quantitation Method: Radioligand Binding
Ascorbic Acid, 0.001% BSA, 5 mM
EDTA, 1.5 mM CaCl2, 120 mM NaCl
Bmax: 0.072 pmole/mg Protein *

Calcium Channel N-Type = Calcium Channel N-Type (Rattus norvegicus, UniProt Q02294); experiment: biochemical; assay type: binding; conditions: 10 µM
Dopamine D3 = molecular target: T2, Dopamine D3 (Homo sapiens, UniProt P35462); assay type: binding; conditions: 10 µM
T2 construct: host or cells: CHO cells
T2 sequence (P35462 whole entry): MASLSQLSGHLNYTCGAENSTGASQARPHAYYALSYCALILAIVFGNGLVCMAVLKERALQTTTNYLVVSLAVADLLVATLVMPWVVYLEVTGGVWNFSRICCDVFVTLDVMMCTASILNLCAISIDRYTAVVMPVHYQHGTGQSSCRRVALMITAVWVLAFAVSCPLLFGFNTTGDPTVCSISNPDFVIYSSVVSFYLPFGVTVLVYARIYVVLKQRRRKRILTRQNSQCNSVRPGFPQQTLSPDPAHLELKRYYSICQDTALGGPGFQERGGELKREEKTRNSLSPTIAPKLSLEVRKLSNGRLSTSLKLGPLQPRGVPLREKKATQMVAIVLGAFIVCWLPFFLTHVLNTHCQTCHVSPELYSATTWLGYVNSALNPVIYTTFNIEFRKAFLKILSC

Endothelin ETB = molecular target: T3, Endothelin ETB (Homo sapiens, UniProt P24530); assay type: binding; conditions: 10 µM
T3 construct: host or cells: CHO-K1 cells

Glutamate, NMDA, Agonism = Glutamate, NMDA, Agonism (Rattus norvegicus, UniProt Q00959); experiment: Radioligand binding 232810; conditions: 10 µM
Sequence of Glutamate, NMDA, Agonism (Q00959 23-1464, other chains not shown): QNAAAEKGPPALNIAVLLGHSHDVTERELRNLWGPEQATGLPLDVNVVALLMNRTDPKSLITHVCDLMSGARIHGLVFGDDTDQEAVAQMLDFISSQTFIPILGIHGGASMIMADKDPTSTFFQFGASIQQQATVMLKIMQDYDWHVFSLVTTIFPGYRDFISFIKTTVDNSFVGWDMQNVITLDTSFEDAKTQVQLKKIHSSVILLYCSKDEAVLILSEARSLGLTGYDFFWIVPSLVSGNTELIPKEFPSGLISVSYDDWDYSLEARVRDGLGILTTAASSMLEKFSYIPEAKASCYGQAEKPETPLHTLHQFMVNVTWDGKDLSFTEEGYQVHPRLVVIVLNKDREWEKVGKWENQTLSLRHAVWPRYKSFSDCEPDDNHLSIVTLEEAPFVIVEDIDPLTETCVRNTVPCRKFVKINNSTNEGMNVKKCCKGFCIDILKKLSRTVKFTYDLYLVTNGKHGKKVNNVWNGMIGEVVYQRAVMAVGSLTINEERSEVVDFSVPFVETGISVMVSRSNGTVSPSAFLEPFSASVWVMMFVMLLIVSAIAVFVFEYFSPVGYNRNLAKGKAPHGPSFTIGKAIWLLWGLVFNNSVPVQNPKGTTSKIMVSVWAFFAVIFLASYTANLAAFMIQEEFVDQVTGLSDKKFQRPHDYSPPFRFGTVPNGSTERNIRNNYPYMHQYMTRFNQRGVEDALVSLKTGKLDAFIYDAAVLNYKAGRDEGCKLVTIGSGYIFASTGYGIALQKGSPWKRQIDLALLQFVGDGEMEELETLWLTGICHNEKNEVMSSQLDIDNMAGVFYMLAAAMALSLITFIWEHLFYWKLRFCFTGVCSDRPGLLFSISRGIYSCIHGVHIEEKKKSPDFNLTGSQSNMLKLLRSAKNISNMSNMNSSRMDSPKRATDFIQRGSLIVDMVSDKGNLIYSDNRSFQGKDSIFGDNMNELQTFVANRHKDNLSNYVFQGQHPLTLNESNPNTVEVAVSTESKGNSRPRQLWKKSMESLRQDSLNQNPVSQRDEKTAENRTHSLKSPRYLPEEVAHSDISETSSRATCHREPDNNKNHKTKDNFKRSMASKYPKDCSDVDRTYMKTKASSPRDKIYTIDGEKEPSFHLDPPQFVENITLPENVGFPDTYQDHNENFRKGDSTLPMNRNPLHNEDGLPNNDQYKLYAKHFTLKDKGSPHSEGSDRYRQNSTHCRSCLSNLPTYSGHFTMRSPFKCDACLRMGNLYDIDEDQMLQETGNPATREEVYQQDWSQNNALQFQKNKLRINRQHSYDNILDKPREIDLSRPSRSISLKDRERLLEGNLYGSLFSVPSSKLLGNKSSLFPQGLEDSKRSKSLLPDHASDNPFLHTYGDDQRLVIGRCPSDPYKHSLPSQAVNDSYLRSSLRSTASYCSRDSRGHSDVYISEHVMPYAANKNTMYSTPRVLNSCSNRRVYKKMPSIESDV

Imidazoline I2, Central = experiment: Radioligand binding 241000; set-up: species or system rat; conditions: 10 µM
Interleukin IL-1 = molecular target: T4, Interleukin IL-1 (Mus musculus, UniProt P13504); experiment: Radioligand binding 243520; conditions: 10 µM
T4 construct: Mouse 3T3-SWISS cells; host or cells: Swiss 3T3 mouse fibroblasts

Neuropeptide Y Y1 = molecular target: T5, Neuropeptide Y Y1 (Homo sapiens, UniProt P25929); experiment: Radioligand binding 257010; conditions: 10 µM
T5 construct: Human SK-N-MC cells; host or cells: SK-N-MC cells

Neuropeptide Y Y2 = molecular target: T6, Neuropeptide Y Y2 (Homo sapiens, UniProt P49146); assay type: binding; conditions: 10 µM
T6 construct: Human KAN-TS cells; host or cells: KAN-TS cells
T6 sequence (P49146 whole entry): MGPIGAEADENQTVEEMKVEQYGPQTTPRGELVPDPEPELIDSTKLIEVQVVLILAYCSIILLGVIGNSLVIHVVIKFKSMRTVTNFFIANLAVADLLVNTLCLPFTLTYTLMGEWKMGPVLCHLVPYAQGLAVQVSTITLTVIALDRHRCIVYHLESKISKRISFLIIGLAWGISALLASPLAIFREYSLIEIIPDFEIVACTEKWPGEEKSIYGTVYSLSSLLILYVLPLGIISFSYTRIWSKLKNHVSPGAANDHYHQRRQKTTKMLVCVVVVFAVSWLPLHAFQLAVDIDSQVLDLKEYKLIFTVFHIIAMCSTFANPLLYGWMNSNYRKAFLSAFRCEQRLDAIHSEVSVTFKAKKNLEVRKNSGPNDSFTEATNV

Prostanoid EP4 = molecular target: T7, Prostanoid EP4 (Homo sapiens, UniProt P35408); experiment: Radioligand binding 268420; conditions: 10 µM
T7 construct: host or cells: Chem-1

Purinergic P2X = experiment: Radioligand binding 268700; set-up: species or system rabbit; conditions: 10 µM
Thyroid Hormone = Thyroid Hormone (Rattus norvegicus, UniProt P18113); assay type: binding; conditions: 10 µM
Sequence of Thyroid Hormone (P18113 whole entry): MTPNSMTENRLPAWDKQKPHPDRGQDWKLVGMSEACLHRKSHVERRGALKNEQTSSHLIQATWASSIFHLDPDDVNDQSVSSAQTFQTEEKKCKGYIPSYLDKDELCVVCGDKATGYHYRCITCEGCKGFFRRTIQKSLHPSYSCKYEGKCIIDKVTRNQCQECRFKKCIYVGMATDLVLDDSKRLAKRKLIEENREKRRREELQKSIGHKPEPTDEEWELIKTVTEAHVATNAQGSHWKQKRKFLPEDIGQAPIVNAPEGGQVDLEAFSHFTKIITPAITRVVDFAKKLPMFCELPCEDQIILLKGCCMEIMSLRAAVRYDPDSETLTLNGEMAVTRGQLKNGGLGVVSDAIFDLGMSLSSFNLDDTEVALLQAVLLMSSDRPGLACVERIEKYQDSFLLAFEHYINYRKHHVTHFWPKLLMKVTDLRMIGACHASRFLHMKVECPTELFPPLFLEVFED

Transporter, GABA = molecular target: T8, Transporter, GABA (Rattus norvegicus, UniProt P23978); experiment: Radioligand binding 226400; conditions: 10 µM
T8 construct: Wistar Rat cerebral cortex; tissue Eurofins Panlabs 226400; host or cells: Wistar rat cerebral cortex

[2] = molecular target: T9, Transporter, Serotonin (5-Hydroxytryptamine) (SERT) (Homo sapiens, UniProt P31645); assay type: binding; conditions: 10 µM
T9 construct: host or cells: HEK-293

[3] = Mouse
[4] = molecular target: Serotonin (5-Hydroxytryptamine) 5-HT3 (Homo sapiens, UniProt P46098); assay type: binding; set-up: host or cells: HEK-293; conditions: 10 µM
Dopamine D2S = Dopamine D2S (Homo sapiens, UniProt P14416); assay type: binding; set-up: host or cells: CHO cells; conditions: 10 µM
Sequence of Dopamine D2S (P14416 other isoform, or with tags, fused parts or gaps): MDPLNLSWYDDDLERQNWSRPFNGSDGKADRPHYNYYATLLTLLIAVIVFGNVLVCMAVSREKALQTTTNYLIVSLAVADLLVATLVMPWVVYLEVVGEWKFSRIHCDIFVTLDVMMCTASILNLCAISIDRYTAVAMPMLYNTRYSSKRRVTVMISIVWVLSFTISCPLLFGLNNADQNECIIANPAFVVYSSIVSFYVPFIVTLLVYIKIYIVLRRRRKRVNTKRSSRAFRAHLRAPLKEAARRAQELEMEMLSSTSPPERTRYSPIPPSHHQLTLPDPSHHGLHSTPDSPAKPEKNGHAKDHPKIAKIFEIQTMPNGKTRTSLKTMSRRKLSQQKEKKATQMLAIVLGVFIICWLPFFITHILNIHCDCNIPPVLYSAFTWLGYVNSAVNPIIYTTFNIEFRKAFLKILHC

Glucocorticoid = Glucocorticoid (Homo sapiens, UniProt P04150); experiment: Radioligand binding 232030; set-up: host or cells: insect cells; conditions: 10 µM
Sequence of Glucocorticoid (P04150 whole entry): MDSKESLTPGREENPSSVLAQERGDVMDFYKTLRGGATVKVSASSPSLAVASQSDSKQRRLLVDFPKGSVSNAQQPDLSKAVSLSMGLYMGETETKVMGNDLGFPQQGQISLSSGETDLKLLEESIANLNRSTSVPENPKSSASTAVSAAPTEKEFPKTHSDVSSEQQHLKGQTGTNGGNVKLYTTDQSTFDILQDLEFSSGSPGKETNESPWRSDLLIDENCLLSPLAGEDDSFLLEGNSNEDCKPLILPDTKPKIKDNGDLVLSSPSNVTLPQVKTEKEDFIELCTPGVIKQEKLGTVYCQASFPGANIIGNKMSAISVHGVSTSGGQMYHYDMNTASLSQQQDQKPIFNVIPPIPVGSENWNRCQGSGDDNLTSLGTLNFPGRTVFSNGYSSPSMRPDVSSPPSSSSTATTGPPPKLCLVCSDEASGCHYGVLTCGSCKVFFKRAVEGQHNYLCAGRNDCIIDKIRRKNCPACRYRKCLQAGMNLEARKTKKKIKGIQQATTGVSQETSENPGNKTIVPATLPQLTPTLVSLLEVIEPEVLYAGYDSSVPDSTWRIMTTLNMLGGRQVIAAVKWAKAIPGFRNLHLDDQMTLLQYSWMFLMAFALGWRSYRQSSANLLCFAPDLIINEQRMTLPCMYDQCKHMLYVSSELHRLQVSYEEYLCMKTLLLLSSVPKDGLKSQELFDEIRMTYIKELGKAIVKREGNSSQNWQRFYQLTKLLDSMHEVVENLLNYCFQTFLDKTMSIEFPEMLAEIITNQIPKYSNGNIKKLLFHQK

Histamine H2 = Histamine H2 (Homo sapiens, UniProt P25021); experiment: Radioligand binding 239710; set-up: host or cells: CHO-K1 cells; conditions: 10 µM
Glutamate, NMDA, Glycine = Glutamate, NMDA, Glycine (Rattus norvegicus, UniProt P35439); assay type: binding; set-up: Wistar Rat cerebral cortex; tissue Eurofins Panlabs 232910; host or cells: Wistar rat cerebral cortex; conditions: 10 µM

CCOc1ccc(-c2cc(NC(=O)c3c(F)cccc3F)c(C(=O)O)s2)cc1 [DU011]
IC50 [1]: 4.5 ± 2.5 µM
% Inh. (Adrenergic α2A): -14%
% Inh. (Calcium Channel N-Type): -18%
% Inh. (Dopamine D3): 6%
% Inh. (Endothelin ETB): 3%
% Inh. (Glutamate, NMDA, Agonism): -8%
% Inh. (Imidazoline I2, Central): -23%
% Inh. (Interleukin IL-1): 4%
% Inh. (Neuropeptide Y Y1): 2%
% Inh. (Neuropeptide Y Y2): -6%
% Inh. (Prostanoid EP4): -4%
% Inh. (Purinergic P2X): 6%
% Inh. (Thyroid Hormone): 20%
% Inh. (Transporter, GABA): -4%
% Inh. [2]: 5%
Hepatic Microsome Stability, percent remaining at 1 hr [3]: 74.32%
% Inh. [4]: -7%
% Inh. (Dopamine D2S): -6%
% Inh. (Glucocorticoid): 16%
% Inh. (Histamine H2): 2%
% Inh. (Glutamate, NMDA, Glycine): 6%
